Values of other authors as cited in patent US8535722B2, “Functionally graded biocompatible coating and coated implant” (priority 2005, dated 2013).

## [Ag] [Ag/Ag^+, silver]
  threshold of cytotoxicity in vivo: 10 ppm
